Measurements from patent publication US10259777B2, “(E)-3-(3,4-dihydroxyphenyl)-N-(prop-2-yn-1-yl)acrylamide for treatment of neurodegenerative diseases” (THE UNIVERSITY OF HONG KONG, priority 2015, dated 2019).

Experiments:
[1] = system: β3-tubulin, MAP2 and GAP-43; experiment: Western blot of neuronal biomarkers in PC12 cells; format: cell-based, rat; conditions: PACA and NGF, alone or in combination
Description: The neuritogenic potential of PACA was verified by the induction of the main neuronal biomarkers (i.g., β3-tubulin, MAP-2 and GAP43). (A) Representative images for the potentiation of NGF-induced neurite outgrowth in PC12 cells by PACA. PC12 cells were treated with NGF (2 ng/ml) and PACA, alone or in combination. The cells were stained with neurite outgrowth staining kit and imaged under a fluorescence microscope. (B) Quantification of neurite outgrowth in Panel A. Following the staining of neurites, the cells bearing neurites longer than 20 μm were counted under a fluorescence microscope. **, p<0.01 (sample vs NGF alone). (C) Western blot analysis of neuronal biomarkers. The cells were treated with NGF and PACA, alone or in combination, whereas the control cells were treated with vehicle for 72 hours. The cellular proteins were extracted and detected by Western blot analysis for the expression of neuron marker. GAPDH was detected as the control of protein loading.
The neuritogenic activity of PACA was evaluated in rat dopaminergic PC12 cells. […] The cells were stained by a neurite outgrowth kit, and subsequently analyzed for neurites (>20 μm) under a fluorescence microscope. […] Following the treatment with PACA and NGF, alone or in combination, PC12 cells were analyzed by Western blotting for the expression of neuronal biomarkers (i.g., β3-tubulin, MAP2 and GAP-43).

[2] = system: primary rat midbrain neurons; experiment: 6-OHDA-induced neurotoxicity in primary midbrain neurons, MTT and Hoechst 33342/PI staining; format: cell-based; conditions: 6-OHDA with or without PACA, MTT
Nrf2 = Nrf2 translocation into cell nuclei, Western blot and immunostaining; format: cell-based, rat
Description: Direct modification of Keap1 caused the dissociation of Nrf2-Keap1 complex. Based on Western blot analysis of the nuclear proteins and immunostaining of intracellular Nrf2, PACA induced the translocation of Nrf2 into the cell nuclei in a concentration-dependent manner. (A) Western blot analysis of cytosolic and nuclear Nrf2. Following PACA treatment, the cytosolic and nuclear proteins were isolated and analyzed by Western blotting for Nrf2 expression. GAPDH and lamin b were analyzed as the control of protein loading. (B) Immunostaining of the intracellular Nrf2. Following PACA treatment, the cells were probed with Nrf2 antibody, and subsequently visualized with […] secondary antibody. […] The images were captured under a fluorescence microscope. […]
Direct modification of Keap1 caused the dissociation of Nrf2-Keap1 complex. […] For Western blot analysis, the cellular proteins were separated into the cytosolic and nuclear fractions, and analyzed by Western blotting with Nrf2 antibodies. GAPDH was used as the control of protein loading, whereas Lamin B was detected as the nuclear biomarker. […] For immunostaining of the intracellular Nrf2, on the other hand, PC12 cells were sequentially probed with rabbit anti-Nrf2 antibody and detected by Alexa Fluor 594-conjugated goat anti-rabbit IgG antibodies PACA. The images were captured under a Zeiss fluorescence microscope.

heme oxygenase-1 (HO-1) = experiment: HO-1 induction in PC12 cells, Western blot; format: cell-based, rat; conditions: PACA 5 to 100 μM for 24 hours or 20 μM for 3, 6, 12, 24 hours
Description: Induction of HO-1 expression is a key mechanism underlying the neuritogenic effects of PACA. (A & B) Western blot analysis of HO-1 induction. Following PACA treatment at different concentrations (A) and for different time points (B), the cellular proteins were isolated and analyzed by Western blotting for HO-1 expression. GAPDH was analyzed as the control of protein loading. (C) PACA stimulated neurite outgrowth via HO-1-mediated mechanism. PC12 cells were treated with NGF (2 ng/ml) in combination with PACA (5 μM, 20 μM) in presence or absence of HO-1 inhibitor SnPP for 72 hours. Cells were stained by neurite outgrowth staining kit and imaged under a fluorescence microscope. (D) Role of HO-1 induction in the neuritogenic activity of PACA. The images captured in Panel C were analyzed for the number of neurite bearing cells. The cells bearing neurites longer than 20 μm were counted. The values represent means±SD (n=3). **, p<0.01 (+SnPP vs −SnPP).
It is well-known that direct modification of Keap1 causes the dissociation of the Nrf2-Keap1 complex and subsequent expression of heme oxygenase-1 (HO-1). Following the treatment with PACA at the concentrations ranging from 5 to 100 μM for 24 hours or at the concentration of 20 μM for 3, 6, 12, 24 hours, PC12 cells were analyzed by Western blotting for HO-1 induction.

PC12 cells = experiment: 6-OHDA-induced nitric oxide production, DAF-FM Diacetate staining; format: cell-based, rat; conditions: 6-OHDA with PACA 5, 10, 20 and 50 μM
Description: After the treatment with 6-OHDA alone or in combination with PACA at different concentrations, PC12 cells were stained with a fluorescent probe dihydroethidium (DHE) for the production of superoxide anion (A & B) and another fluorescent probe DAF-FM Diacetate for the production of nitric oxide ([…]), respectively. (A) Representative images of DHE-stained cells. 6-OHDA, 200 μM; PACA, 50 (B) PACA inhibited 6-OHDA-induced formation of superoxide ions. PC12 cells were treated with 6-OHDA alone or in combination with PACA for 6 h and subsequently stained with a probe DHE. The images were captured under a fluorescence microscope. The fluorescence was determined by ImageJ software. (C) Representative images of DAF-FM DA-stained cells. 6-OHDA, 200 μM; PACA, 50 μM. (D) PACA inhibited 6-OHDA-induced NO production. PC12 cells were treated with 6-OHDA alone or in combination with PACA for 6 h and subsequently stained with a probe DAF-FM DA. The images were captured under a fluorescence microscope. The fluorescence was determined by ImageJ software.
PC12 cells were treated with 6-OHDA alone or in combination with PACA at the concentrations of 5, 10, 20 and 50 μM. At the end of treatment, PC12 cells were then stained with a fluorescent probe dihydroethidium (DHE) for the production of superoxide anion and another fluorescent probe DAF-FM Diacetate for the production of nitric oxide, respectively.

C#CCNC(=O)/C=C/c1ccc(O)c(O)c1 [PACA, (E)-3-(3,4-dihydroxyphenyl)-N-(prop-2-yn-1-yl)acrylamide]
induction of neuronal markers β3-tubulin, MAP2 and GAP-43 [1]: enhanced the neuritogenic activity of NGF in a concentration-dependent manner
6-OHDA neurotoxicity in primary rat midbrain neurons [2]: attenuated 6-hydroxydopamine (6-OHDA) neurotoxicity
levels of nuclear Nrf2 (Nrf2; PACA at different concentrations, Western blot of nuclear fraction): significantly increased the levels of nuclear Nrf2 in a concentration-dependent manner
intracellular Nrf2 localization by immunostaining (Nrf2; PC12 cells, anti-Nrf2 immunostaining): promoted the accumulation of Nrf2 in the cell nucleus
HO-1 expression (heme oxygenase-1 (HO-1)): induced HO-1 expression in a time- and concentration-dependent manner
6-OHDA-induced formation of NO (PC12 cells): significantly attenuated
